Reference: the kinase profiling compilation of Christmann-Franck et al. (2016)
Blank lines part the entries; values can stand above or below the compound they belong to.

Key:
Experiment in all cases: Caliper, Mobility shift assay off-chip
[1] = test system: RET (human), P07949 [V804M]
GRK7 (human) = GRK7 (human) (UniProt Q8WTQ7)
TXK (human) = TXK (human) (UniProt P42681)
[2] = test system: ABL1 (human), P00519 [Y253F]
TAOK1 (human) = TAOK1 (human) (UniProt Q7L7X3)
[3] = test system: BTK (human), Q06187 [R28H]
BTK (human), Q06187 [R28H], sequence (Q06187 whole entry R28H, looked up): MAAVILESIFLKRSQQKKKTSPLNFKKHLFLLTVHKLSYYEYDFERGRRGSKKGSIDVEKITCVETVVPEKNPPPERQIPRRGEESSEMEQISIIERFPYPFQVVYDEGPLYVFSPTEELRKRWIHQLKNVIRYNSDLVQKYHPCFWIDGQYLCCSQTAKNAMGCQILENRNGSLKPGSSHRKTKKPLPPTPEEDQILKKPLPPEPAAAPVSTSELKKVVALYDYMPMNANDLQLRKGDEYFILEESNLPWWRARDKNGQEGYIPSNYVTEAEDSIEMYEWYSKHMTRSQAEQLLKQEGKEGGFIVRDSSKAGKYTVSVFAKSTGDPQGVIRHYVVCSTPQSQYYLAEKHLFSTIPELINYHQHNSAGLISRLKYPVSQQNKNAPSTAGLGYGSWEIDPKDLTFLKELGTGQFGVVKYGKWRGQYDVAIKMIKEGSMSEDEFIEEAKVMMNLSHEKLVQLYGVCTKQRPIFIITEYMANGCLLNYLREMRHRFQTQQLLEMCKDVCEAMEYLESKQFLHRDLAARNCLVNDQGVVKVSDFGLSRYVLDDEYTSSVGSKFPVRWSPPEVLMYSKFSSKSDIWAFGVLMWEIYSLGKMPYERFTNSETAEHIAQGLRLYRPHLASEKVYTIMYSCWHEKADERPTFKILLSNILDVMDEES

MAPK3 (human) = MAPK3 (human) (UniProt P27361); details: compound 1.0 µM
ABL1 (mouse) = details: compound 1.0 µM; accession and sequence are those of the human protein
CSNK1A1 (yeast) = CSNK1A1 (yeast) (UniProt P48729); details: compound 1.0 µM; accession and sequence are those of the human protein
CSNK1A1 (yeast), sequence (P48729 whole entry, looked up): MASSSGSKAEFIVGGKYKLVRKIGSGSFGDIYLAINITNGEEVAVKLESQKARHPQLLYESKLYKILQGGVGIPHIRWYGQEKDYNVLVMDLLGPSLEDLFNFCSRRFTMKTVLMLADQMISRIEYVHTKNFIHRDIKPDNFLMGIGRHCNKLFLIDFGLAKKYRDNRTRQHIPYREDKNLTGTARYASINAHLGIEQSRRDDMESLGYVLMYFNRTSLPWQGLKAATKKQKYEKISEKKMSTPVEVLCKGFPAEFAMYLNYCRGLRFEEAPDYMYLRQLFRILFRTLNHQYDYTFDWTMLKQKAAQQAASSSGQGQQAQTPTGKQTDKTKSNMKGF

PIK3CG (human) = PIK3CG (human) (UniProt P48736); details: compound 1.0 µM
PIK3CB (human) = PIK3CB (human) (UniProt P42338); details: compound 1.0 µM
LYN (mouse) = details: compound 1.0 µM; accession and sequence are those of the human protein
ABL2 (mouse) = details: compound 1.0 µM; accession and sequence are those of the human protein
MYLK (human) = MYLK (human) (UniProt Q15746); details: compound 1.0 µM
CSNK1A1 (human) = CSNK1A1 (human) (UniProt P48729); details: compound 1.0 µM
CSNK1A1 (human), sequence (P48729 whole entry, looked up): as above

PIK3CD (human) = PIK3CD (human) (UniProt O00329); details: compound 1.0 µM
TEC (human) = TEC (human) (UniProt P42680); details: compound 10.0 µM
MAP2K4 (mouse) = details: compound 10.0 µM; accession and sequence are those of the human protein
BRAF (human) = BRAF (human) (UniProt P15056); details: compound 10.0 µM
PBK (human) = PBK (human) (UniProt Q96KB5); details: compound 10.0 µM
PHKG1 (rabbit) = details: compound 10.0 µM; accession and sequence are those of the human protein
DYRK1A (rat) = details: compound 10.0 µM; accession and sequence are those of the human protein
PRKAA1 (human) = PRKAA1 (human) (UniProt Q13131); details: compound 10.0 µM
MAP2K1 (rabbit) = details: compound 10.0 µM; accession and sequence are those of the human protein
SGK1 (human) = SGK1 (human) (UniProt O00141); details: compound 10.0 µM
AURKC (human) = AURKC (human) (UniProt Q9UQB9); details: compound 10.0 µM
CSNK1A1 (rat) = details: compound 10.0 µM; accession and sequence are those of the human protein
NTRK3 (human) = NTRK3 (human) (UniProt Q16288); details: compound 10.0 µM
PAK1 (human) = PAK1 (human) (UniProt Q13153); details: compound 10.0 µM
MAP3K14 (human) = MAP3K14 (human) (UniProt Q99558); details: compound 10.0 µM
PRKDC (human) = PRKDC (human) (UniProt P78527); details: compound 10.0 µM
ERBB2 (human) = ERBB2 (human) (UniProt P04626); details: compound 10.0 µM
CSNK2A1 (human) = CSNK2A1 (human) (UniProt P68400); details: compound 10.0 µM
CDC7 (human) = CDC7 (human) (UniProt O00311); details: compound 10.0 µM
MAP3K8 (human) = MAP3K8 (human) (UniProt P41279); details: compound 10.0 µM
[4] = test system: RPS6KB1 (human), P23443 [T412E]; details: compound 10.0 µM
CDK4 (human) = CDK4 (human) (UniProt P11802); details: compound 10.0 µM
MARK4 (human) = MARK4 (human) (UniProt Q96L34); details: compound 10.0 µM
MARK4 (human), sequence (Q96L34 whole entry, looked up): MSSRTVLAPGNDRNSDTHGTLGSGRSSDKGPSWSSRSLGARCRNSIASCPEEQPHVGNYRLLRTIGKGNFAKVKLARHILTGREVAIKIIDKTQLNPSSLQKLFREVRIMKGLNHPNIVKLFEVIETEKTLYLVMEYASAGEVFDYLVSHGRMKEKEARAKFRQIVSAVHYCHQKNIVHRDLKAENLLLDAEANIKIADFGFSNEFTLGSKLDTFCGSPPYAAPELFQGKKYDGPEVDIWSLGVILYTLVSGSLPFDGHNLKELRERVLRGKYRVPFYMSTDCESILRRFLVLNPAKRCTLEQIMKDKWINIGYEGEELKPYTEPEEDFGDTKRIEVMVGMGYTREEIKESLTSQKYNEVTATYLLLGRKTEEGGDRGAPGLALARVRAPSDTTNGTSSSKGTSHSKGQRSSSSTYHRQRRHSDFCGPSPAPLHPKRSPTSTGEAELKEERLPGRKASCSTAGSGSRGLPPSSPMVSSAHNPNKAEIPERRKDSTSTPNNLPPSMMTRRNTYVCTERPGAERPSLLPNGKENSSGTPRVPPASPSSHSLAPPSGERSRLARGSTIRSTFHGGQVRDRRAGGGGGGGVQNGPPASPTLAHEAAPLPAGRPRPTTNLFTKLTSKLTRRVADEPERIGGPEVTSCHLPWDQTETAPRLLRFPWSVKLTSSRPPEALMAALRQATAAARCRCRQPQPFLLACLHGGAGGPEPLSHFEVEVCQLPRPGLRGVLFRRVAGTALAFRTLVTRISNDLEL

TAOK1 (human), sequence (Q7L7X3 whole entry, looked up): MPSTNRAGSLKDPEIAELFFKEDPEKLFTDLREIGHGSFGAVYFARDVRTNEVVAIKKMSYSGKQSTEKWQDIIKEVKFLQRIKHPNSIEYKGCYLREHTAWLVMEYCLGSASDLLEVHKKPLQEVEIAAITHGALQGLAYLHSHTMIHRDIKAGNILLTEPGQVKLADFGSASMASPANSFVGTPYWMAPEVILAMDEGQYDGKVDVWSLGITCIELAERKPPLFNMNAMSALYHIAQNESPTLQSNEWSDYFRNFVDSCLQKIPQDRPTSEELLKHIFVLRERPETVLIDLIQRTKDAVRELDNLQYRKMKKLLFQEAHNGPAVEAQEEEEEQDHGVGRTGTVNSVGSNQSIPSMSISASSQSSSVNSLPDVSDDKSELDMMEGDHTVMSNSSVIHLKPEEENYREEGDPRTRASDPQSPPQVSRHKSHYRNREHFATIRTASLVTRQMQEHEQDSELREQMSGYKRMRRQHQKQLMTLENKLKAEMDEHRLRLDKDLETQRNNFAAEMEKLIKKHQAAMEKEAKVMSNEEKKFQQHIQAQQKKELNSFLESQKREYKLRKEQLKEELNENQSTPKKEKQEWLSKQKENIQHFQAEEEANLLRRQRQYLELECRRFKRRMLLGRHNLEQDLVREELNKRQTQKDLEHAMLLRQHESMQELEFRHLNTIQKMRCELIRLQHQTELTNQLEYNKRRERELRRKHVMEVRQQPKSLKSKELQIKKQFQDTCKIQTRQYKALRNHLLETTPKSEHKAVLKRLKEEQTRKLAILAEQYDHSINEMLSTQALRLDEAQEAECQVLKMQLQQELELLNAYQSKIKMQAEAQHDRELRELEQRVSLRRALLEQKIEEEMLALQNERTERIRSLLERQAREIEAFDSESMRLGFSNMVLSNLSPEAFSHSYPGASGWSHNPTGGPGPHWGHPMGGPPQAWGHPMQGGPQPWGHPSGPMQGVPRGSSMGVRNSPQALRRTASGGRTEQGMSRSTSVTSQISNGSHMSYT
GRK7 (human), sequence (Q8WTQ7 whole entry, looked up): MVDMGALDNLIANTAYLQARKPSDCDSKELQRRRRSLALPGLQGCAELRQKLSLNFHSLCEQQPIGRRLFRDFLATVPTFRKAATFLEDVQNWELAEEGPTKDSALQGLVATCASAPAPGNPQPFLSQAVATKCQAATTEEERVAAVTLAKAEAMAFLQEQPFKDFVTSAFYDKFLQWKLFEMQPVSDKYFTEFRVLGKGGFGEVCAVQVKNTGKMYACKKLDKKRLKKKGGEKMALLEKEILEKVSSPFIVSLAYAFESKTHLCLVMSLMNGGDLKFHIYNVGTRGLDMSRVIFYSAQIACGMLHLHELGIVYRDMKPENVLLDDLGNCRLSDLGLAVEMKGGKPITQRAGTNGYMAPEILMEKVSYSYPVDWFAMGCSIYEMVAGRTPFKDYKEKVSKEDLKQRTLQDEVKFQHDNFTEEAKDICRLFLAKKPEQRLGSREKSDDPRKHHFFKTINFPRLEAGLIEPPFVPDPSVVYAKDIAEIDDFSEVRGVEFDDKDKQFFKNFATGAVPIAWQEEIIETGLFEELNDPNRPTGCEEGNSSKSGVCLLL
RET (human), P07949 [V804M], sequence (P07949 whole entry V804M, looked up): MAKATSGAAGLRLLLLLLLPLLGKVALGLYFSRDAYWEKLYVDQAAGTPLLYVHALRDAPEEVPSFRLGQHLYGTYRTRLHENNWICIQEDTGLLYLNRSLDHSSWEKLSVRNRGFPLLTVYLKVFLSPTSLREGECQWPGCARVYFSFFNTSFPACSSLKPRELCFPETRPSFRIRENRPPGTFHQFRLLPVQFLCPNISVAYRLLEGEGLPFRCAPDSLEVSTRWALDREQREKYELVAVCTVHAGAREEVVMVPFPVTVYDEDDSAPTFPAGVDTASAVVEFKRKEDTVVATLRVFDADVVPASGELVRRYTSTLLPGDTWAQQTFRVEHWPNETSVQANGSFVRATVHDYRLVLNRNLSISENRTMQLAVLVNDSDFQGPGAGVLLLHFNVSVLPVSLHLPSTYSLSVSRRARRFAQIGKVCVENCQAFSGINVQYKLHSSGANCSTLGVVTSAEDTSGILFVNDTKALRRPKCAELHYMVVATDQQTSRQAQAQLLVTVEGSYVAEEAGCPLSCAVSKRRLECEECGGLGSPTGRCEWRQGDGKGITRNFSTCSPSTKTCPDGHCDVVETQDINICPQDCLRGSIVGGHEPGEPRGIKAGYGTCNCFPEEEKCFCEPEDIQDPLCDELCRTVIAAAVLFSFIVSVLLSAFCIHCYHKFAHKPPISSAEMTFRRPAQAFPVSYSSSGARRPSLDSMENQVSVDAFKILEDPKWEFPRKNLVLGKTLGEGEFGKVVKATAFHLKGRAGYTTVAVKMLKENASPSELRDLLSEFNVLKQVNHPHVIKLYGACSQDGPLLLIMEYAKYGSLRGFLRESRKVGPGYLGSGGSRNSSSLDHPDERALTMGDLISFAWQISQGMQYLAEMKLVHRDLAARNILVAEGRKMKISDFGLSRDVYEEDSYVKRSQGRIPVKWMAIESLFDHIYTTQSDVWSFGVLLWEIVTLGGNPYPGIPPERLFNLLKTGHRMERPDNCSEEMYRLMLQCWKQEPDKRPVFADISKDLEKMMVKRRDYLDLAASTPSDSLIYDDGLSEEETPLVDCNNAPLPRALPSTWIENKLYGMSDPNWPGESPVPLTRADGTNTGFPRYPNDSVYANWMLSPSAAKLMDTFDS
TXK (human), sequence (P42681 whole entry, looked up): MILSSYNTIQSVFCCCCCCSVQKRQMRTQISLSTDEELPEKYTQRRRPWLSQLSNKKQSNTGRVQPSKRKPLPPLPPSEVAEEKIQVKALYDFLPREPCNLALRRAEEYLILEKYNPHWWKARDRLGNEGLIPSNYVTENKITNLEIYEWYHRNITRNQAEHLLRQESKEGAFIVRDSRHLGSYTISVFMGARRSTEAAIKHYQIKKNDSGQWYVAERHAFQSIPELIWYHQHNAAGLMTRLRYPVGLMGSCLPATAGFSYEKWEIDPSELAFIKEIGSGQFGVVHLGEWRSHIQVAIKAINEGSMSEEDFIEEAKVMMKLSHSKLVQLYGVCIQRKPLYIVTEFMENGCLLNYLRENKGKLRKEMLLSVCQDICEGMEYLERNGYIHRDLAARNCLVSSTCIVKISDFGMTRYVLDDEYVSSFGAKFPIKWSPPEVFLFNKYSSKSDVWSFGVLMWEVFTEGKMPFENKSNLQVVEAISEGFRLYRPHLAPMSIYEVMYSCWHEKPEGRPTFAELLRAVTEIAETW

residual activity ([1]; compound 1.0 µM): 13%
residual activity (GRK7 (human); compound 1.0 µM): 90%
residual activity (TXK (human); compound 1.0 µM): 84%
residual activity ([2]; compound 1.0 µM): 60%
residual activity (TAOK1 (human); compound 1.0 µM): 95%
residual activity ([3]; compound 1.0 µM): 100%
Compound: C[C@@H](Nc1nc2c(C#CC3CC3)c[nH]c(=O)c2c2cc(-c3cn[nH]c3)ccc12)C(C)(C)C

residual activity (MAPK3 (human)): 89%
residual activity (ABL1 (mouse)): 98%
residual activity (CSNK1A1 (yeast)): 69%
residual activity (PIK3CG (human)): 116%
residual activity (PIK3CB (human)): 100%
residual activity (LYN (mouse)): 69%
residual activity (ABL2 (mouse)): 110%
residual activity (MYLK (human)): 68%
residual activity (CSNK1A1 (human)): 111%
residual activity (PIK3CD (human)): 95%
Compound: Cc1n[nH]c2c1c(=O)n(CCCN)c1ccc(Cl)cc21

Compound: O=C(N[C@@H](COc1ccc2[nH]c(=O)[nH]c2c1)c1ccccc1)c1cccn(Cc2ccc(F)c(F)c2)c1=O
residual activity ([1]; compound 10.0 µM): 109%
residual activity (GRK7 (human); compound 10.0 µM): 108%
residual activity (TXK (human); compound 10.0 µM): 138%
residual activity ([2]; compound 10.0 µM): 110%
residual activity (TEC (human)): 91%
residual activity (MAP2K4 (mouse)): 112%
residual activity (TAOK1 (human); compound 10.0 µM): 96%
residual activity ([3]; compound 10.0 µM): 106%

residual activity (BRAF (human)): 114%
residual activity (PBK (human)): 10%
residual activity (PHKG1 (rabbit)): 6%
residual activity (DYRK1A (rat)): 64%
residual activity (PRKAA1 (human)): 5%
residual activity (MAP2K1 (rabbit)): 30%
residual activity (SGK1 (human)): 3%
residual activity (AURKC (human)): 4%
residual activity (CSNK1A1 (rat)): 59%
residual activity (NTRK3 (human)): 2%
residual activity (PAK1 (human)): 73%
residual activity (MAP3K14 (human)): 92%
residual activity (PRKDC (human)): 97%
residual activity (ERBB2 (human)): 130%
residual activity (CSNK2A1 (human)): 71%
residual activity (CDC7 (human)): 70%
residual activity (MAP3K8 (human)): 87%
residual activity [4]: 11%
residual activity (CDK4 (human)): 21%
residual activity (MARK4 (human)): 25%
Compound: CC(C)(C)c1nc2c3ccc(F)cc3c3c(=O)[nH]ccc3c2[nH]1
